# Laboratory results published in ChEMBL document CHEMBL1201862, “PubChem BioAssay data set” (2004).
#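 Results reflect a 48-hour exposure of cells in 96-well plates to compound at five concentrations. The concentration for 50% growth inhibition is given as GI50.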 Active and inactive are the calls of the source. Rule as the data show it: active = GI50 up to about 1.1 µM and inactive = higher.
# What was measured:
# Test in all cases: inhibition of tumour cell growth, NCI panel, 48 h
# Malme-3M = test system: Malme-3M
# SK-MEL-2 = test system: SK-MEL-2
# CCRF-CEM = test system: CCRF-CEM
# MDA-MB-435 = test system: MDA-MB-435
# NCI-H460 = test system: NCI-H460
# LOX IMVI = test system: LOX IMVI
# SR = test system: SR
# OVCAR-3 = test system: OVCAR-3
# SF-295 = test system: SF-295
# HCT-15 = test system: HCT-15
# HCT-116 = test system: HCT-116
# NCI-H23 = test system: NCI-H23
# MDA-N = test system: MDA-N
# SNB-19 = test system: SNB-19
# M14 = test system: M14
# MOLT-4 = test system: MOLT-4
# SF-268 = test system: SF-268
# RXF 393 = test system: RXF 393
# SNB-75 = test system: SNB-75
Structure (SMILES),GI50 (Malme-3M),GI50 (SK-MEL-2),GI50 (CCRF-CEM),GI50 (MDA-MB-435),GI50 (NCI-H460),GI50 (LOX IMVI),GI50 (SR),GI50 (OVCAR-3),GI50 (SF-295),GI50 (HCT-15) [µM],GI50 (HCT-116),GI50 (NCI-H23),GI50 (MDA-N),GI50 (SNB-19),GI50 (M14),GI50 (MOLT-4),GI50 (SF-268),GI50 (RXF 393),GI50 (SNB-75)
OC(Cc1ccccc1)(Cc1ccccc1)c1ccccc1,13.1 µM (inactive),15.3 µM (inactive),20.7 µM (inactive),17.5 µM (inactive),19.4 µM (inactive),18.3 µM (inactive),25.1 µM (inactive),18.2 µM (inactive),19.3 µM (inactive),20.5,16.2 µM (inactive),18.8 µM (inactive),15.2 µM (inactive),26.1 µM (inactive),17.7 µM (inactive),24.6 µM (inactive),14.9 µM (inactive),15.3 µM (inactive),
CCC/C=C/c1cc2c(cc1O)CC[C@@H]1[C@@H]2CC[C@]2(C)[C@@H](O)CC[C@@H]12,16.5 µM (inactive),16.6 µM (inactive),12 µM (inactive),15.7 µM (inactive),17.4 µM (inactive),14.8 µM (inactive),15.4 µM (inactive),19.2 µM (inactive),17.6 µM (inactive),18.6,,17.5 µM (inactive),15.1 µM (inactive),23.6 µM (inactive),20.3 µM (inactive),18.3 µM (inactive),18.4 µM (inactive),16.3 µM (inactive),16.4 µM (inactive)
CCN(CC)c1ccc(/C=C/c2ccnc3ccccc23)cc1,> 100 µM (inactive),> 100 µM (inactive),> 100 µM (inactive),> 100 µM (inactive),> 100 µM (inactive),> 100 µM (inactive),> 100 µM (inactive),> 100 µM (inactive),> 100 µM (inactive),> 100,> 100 µM (inactive),> 100 µM (inactive),> 100 µM (inactive),> 100 µM (inactive),> 100 µM (inactive),,> 100 µM (inactive),> 100 µM (inactive),> 100 µM (inactive)
ON[C@H]1C[C@@H](n2cnc3c(NC4CC4)ncnc32)[C@H](O)[C@@H]1O,> 100 µM (inactive),> 100 µM (inactive),> 100 µM (inactive),> 100 µM (inactive),> 100 µM (inactive),> 100 µM (inactive),> 100 µM (inactive),> 100 µM (inactive),> 100 µM (inactive),> 100,> 100 µM (inactive),> 100 µM (inactive),> 100 µM (inactive),> 100 µM (inactive),> 100 µM (inactive),> 100 µM (inactive),> 100 µM (inactive),> 100 µM (inactive),> 100 µM (inactive)
COc1ccc2c(c1)CC[C@@H]1[C@@H]2CC[C@]2(C)/C(=N/OCCN3CCCC3)CC[C@@H]12,1.63 µM (inactive),1.82 µM (inactive),1.49 µM (inactive),0.91 µM (active),1.5 µM (inactive),1.57 µM (inactive),1.97 µM (inactive),5.82 µM (inactive),2.35 µM (inactive),1.25,1.78 µM (inactive),5.94 µM (inactive),1.98 µM (inactive),11.1 µM (inactive),1.27 µM (inactive),1.93 µM (inactive),4.07 µM (inactive),1.92 µM (inactive),3 µM (inactive)
CCOC(=O)c1c(SC(=O)c2cc(OC)c(OC)c(OC)c2)n(-c2ccccc2)c(=S)n(-c2ccccc2)c1=O,51.8 µM (inactive),,> 100 µM (inactive),> 100 µM (inactive),> 100 µM (inactive),> 100 µM (inactive),> 100 µM (inactive),> 100 µM (inactive),> 100 µM (inactive),> 100,> 100 µM (inactive),> 100 µM (inactive),> 100 µM (inactive),> 100 µM (inactive),> 100 µM (inactive),> 100 µM (inactive),> 100 µM (inactive),> 100 µM (inactive),> 100 µM (inactive)
CC1(c2nc3cc(Cl)c(Cl)cc3[nH]2)CCC(CO)C(C)(C)O1 (stereo not drawn),24.5 µM (inactive),30.3 µM (inactive),27.9 µM (inactive),41.4 µM (inactive),,27.7 µM (inactive),19.9 µM (inactive),29.5 µM (inactive),31 µM (inactive),35.6,31.4 µM (inactive),25.6 µM (inactive),29 µM (inactive),54.1 µM (inactive),26.2 µM (inactive),24.5 µM (inactive),34.8 µM (inactive),47.4 µM (inactive),14.8 µM (inactive)
CC(=O)OCc1nc(C#N)c(N)o1,> 100 µM (inactive),> 100 µM (inactive),> 100 µM (inactive),> 100 µM (inactive),> 100 µM (inactive),> 100 µM (inactive),> 100 µM (inactive),> 100 µM (inactive),> 100 µM (inactive),> 100,> 100 µM (inactive),> 100 µM (inactive),> 100 µM (inactive),> 100 µM (inactive),,> 100 µM (inactive),> 100 µM (inactive),> 100 µM (inactive),
O=C(/C=C(\Nc1ccccc1O)c1ccccc1)C(=O)NC12CC3CC(CC(C3)C1)C2,> 10 µM (inactive),> 10 µM (inactive),4.33 µM (inactive),> 10 µM (inactive),> 10 µM (inactive),9.14 µM (inactive),5.33 µM (inactive),> 10 µM (inactive),> 10 µM (inactive),> 10,,> 10 µM (inactive),> 10 µM (inactive),,> 10 µM (inactive),5.66 µM (inactive),> 10 µM (inactive),> 10 µM (inactive),> 10 µM (inactive)
COc1ccc(Br)c2c1CC(C(=O)O)CC2 (stereo not drawn),> 100 µM (inactive),> 100 µM (inactive),> 100 µM (inactive),> 100 µM (inactive),> 100 µM (inactive),> 100 µM (inactive),> 54 µM (inactive),> 100 µM (inactive),> 100 µM (inactive),> 100,> 100 µM (inactive),> 100 µM (inactive),> 100 µM (inactive),> 100 µM (inactive),> 100 µM (inactive),> 100 µM (inactive),> 100 µM (inactive),> 100 µM (inactive),> 100 µM (inactive)
Cn1/c(=N\N=C2\C=C3CCCCC3(C)CC2)sc2ccccc21 (stereo not drawn),> 100 µM (inactive),> 100 µM (inactive),55.2 µM (inactive),> 100 µM (inactive),> 100 µM (inactive),> 100 µM (inactive),> 100 µM (inactive),> 100 µM (inactive),> 100 µM (inactive),> 100,> 100 µM (inactive),> 100 µM (inactive),> 100 µM (inactive),> 100 µM (inactive),> 100 µM (inactive),,> 100 µM (inactive),> 100 µM (inactive),47.1 µM (inactive)
COc1cc2c(cc1C1COc3cc4occc4cc3C1=O)OCO2 (stereo not drawn),89.1 µM (inactive),> 100 µM (inactive),> 100 µM (inactive),> 100 µM (inactive),,> 100 µM (inactive),49.1 µM (inactive),> 100 µM (inactive),53.8 µM (inactive),35.9,> 100 µM (inactive),> 100 µM (inactive),> 100 µM (inactive),30.1 µM (inactive),> 100 µM (inactive),4.05 µM (inactive),55.1 µM (inactive),36.3 µM (inactive),> 100 µM (inactive)
C[n+]1cn(-c2nc3ccccc3nc2[N-]S(=O)(=O)c2ccccc2)c2ccccc21,> 100 µM (inactive),> 100 µM (inactive),> 100 µM (inactive),> 100 µM (inactive),> 100 µM (inactive),> 100 µM (inactive),> 100 µM (inactive),> 100 µM (inactive),> 100 µM (inactive),> 100,> 100 µM (inactive),> 100 µM (inactive),> 100 µM (inactive),> 100 µM (inactive),> 100 µM (inactive),> 100 µM (inactive),> 100 µM (inactive),62.2 µM (inactive),> 100 µM (inactive)
CC(C)/C=N\n1c(N)c(C#N)c(C#N)c1C(C)C,22.8 µM (inactive),18.2 µM (inactive),19.9 µM (inactive),31.3 µM (inactive),,19 µM (inactive),0.951 µM (active),11.7 µM (inactive),16.8 µM (inactive),24.3,24.5 µM (inactive),24 µM (inactive),18.6 µM (inactive),34.9 µM (inactive),22.2 µM (inactive),13.5 µM (inactive),28.1 µM (inactive),18.1 µM (inactive),4.67 µM (inactive)
CN1CCC/C1=N\C#N,> 100 µM (inactive),> 100 µM (inactive),> 100 µM (inactive),> 100 µM (inactive),> 100 µM (inactive),> 100 µM (inactive),> 100 µM (inactive),> 100 µM (inactive),> 100 µM (inactive),> 100,> 100 µM (inactive),> 100 µM (inactive),> 100 µM (inactive),> 100 µM (inactive),> 100 µM (inactive),> 100 µM (inactive),> 100 µM (inactive),> 100 µM (inactive),> 100 µM (inactive)
